Test results taken from patent publication US12544431B2, “Peptides for the treatment of cancer and/or metastasis” (BCN PEPTIDES, S.A., priority 2019, dated 2026).
“Also recorded” adds a separate entry of the source. Marks after values point to notes of the source that are not given here. Where a SMILES comes first, the peptide text is derived from it. [ ]: non-standard residue; d: D form. Phe(2,4,6-Me3) = Cc1cc(C)c(C[C@H](N)C(=O)O)c(C)c1; pGlu = O=C1CC[C@@H](C(=O)O)N1

Legend:
[1] = test system: RH30 rhabdomyosarcoma cells; experiment: Matrigel-coated transwell invasion assay, RH30 cells; type: cell-based; conditions: % invasive cells vs non-treated control
Description: (§1) 10^5 RH30 or RD cells were plated in the upper chamber of a Matrigel-coated transwell (Corning) in 0.1 mL medium without FBS. Cells were previously incubated with different concentrations (0 nM, 100 nM, 200 nM, 500 nM and 1000 nM) of the peptides and peptide dimer for 48 hours, being also present in the medium during the cell invasion assay. In the lower chamber, 0.6 mL of medium with FBS was added. Cells were incubated at 37° ° C. for 24 hours.
(§2) After that, cells were fixed with 4% paraformaldehyde (Sigma) for 10 minutes, followed by washing with PBS. After removal of the Matrigel and remaining cells from the upper face of the membrane with a cotton swab, the cells present on the lower face were stained with a Hoechst dilution (Sigma) and were counted (5 fields for each well) with an inverted fluorescence microscope Nikon with a 10× objective. All experiments were made in triplicate. In Table 6 the % Invasiveness represents the mean percentage of invasive cells with respect to their controls.

[2] = test system: BE(2)-C neuroblastoma cells; experiment: Transwell invasion assay, BE(2)-C cells; type: cell-based
Description: as §1, §2
(§3) The transwell assay with CHLA-90 and BE(2)-C cell lines was done following the same conditions detailed for determining the % of invasiveness in rhabdomyosarcoma cells.
(§4) The transwell assay with neuroblastoma cell lines (CHLA-90, BE(2)-C and SK—N-BE(2)-C)) and breast cancer cell lines (MDA-MB-231 and MDA-MB-468) was performed at the same conditions detailed for determining the % of invasiveness in rhabdomyosarcoma cells.

[3] = test system: RD rhabdomyosarcoma cells; experiment: Matrigel-coated transwell invasion assay, RD cells; type: cell-based; conditions: % invasive cells vs non-treated control
Description: as §1, §2

[4] = test system: RD rhabdomyosarcoma cells; experiment: Rhabdomyosarcoma metastatic mice model (RD cells i.v. in tail vein); type: in vivo, SCID/Beige mice; conditions: for event-free survival vs vehicle group (in words): 27-week study; for Absence of metastases, number of mice / Absence of metastases, percentage of mice / Presence of metastases (%), percentage of mice / Presence of metastases, number of mice: 27 weeks; for body weight, treated vs vehicle-treated mice (in words): along the 27-week study; for reduction in metastases formation: vs PBS-treated mice
Description: SCID/Beige female mice aged of 5 weeks were administered subcutaneously (s.c.) at day −1 with the first dose of treatment i.e. the vehicle (PBS, Phosphate buffered saline) or the peptides. On day 0, mice were injected intravenously (i.v.) in the tail vein with 2×10^6 RD rhabdomyosarcoma cells.
Body weight was evaluated twice per week for 27 weeks. Overall survival and event-free survival were determined. At necropsy, the total number of metastases were quantified and the number of metastases per mice and their localization were also reported.

[5] = In vitro stability, half-life in human plasma; type: in vitro ADME; conditions: 90% human plasma, 37° C., RP-HPLC; read-out: t½ (hours) in human plasma (converted)
Description: The peptides and peptide dimer synthesized and prepared in accordance with Example 1 were dissolved in water at a concentration of 6 mg/mL and warmed up to 37° C.
Human plasma was obtained as a lyophilized solid (K3 EDTA Plasma, BBI Solutions, code S112-1), reconstituted with sterile 0.9% sodium chloride solution and stored at −20° C. Human plasma was thawed and incubated at 37° C. before use.
The peptides and peptide dimer were incubated in 90% human plasma at 37° C. for different times and then precipitated with two volume equivalents of methanol. The samples were cooled in an acetone-carbon dioxide bath for a few seconds and centrifuged for 12 minutes at 4° C. at approximately 10,000 rpm. The supernatant was filtered with a 0.45 μm PVDF filter and analyzed in triplicate by RP-HPLC using an isocratic method (Eluent A=0.1% TFA in water; Eluent B=0.07% TFA in ACN, Column=Kromasil C8, 100 Å, 5 μm, 250×4.6 mm, Flow=1 mL/min, Wavelength: 220 nm, Injection volume=20 μL, Temperature=60° C.). The disappearance of the compound was determined in relation to the area of the initial time to calculate its half-life.

[6] = test system: CHLA-90 neuroblastoma cells; experiment: Transwell invasion assay, CHLA-90 cells; type: cell-based
Description: as §1, §2, §3, §4

[7] = 500 nM peptide, listed as SEQ ID NO: 6—NH2
[8] = 0.5 mg/kg s.c. three times per week
[9] = 2 mg/kg s.c. three times per week

Cc1cc(C)c(C[C@H](NC(=O)[C@H](CCC(=O)O)NC(=O)[C@@H]2CCCN2C(=O)[C@H](CC(C)C)NC(=O)[C@H](CC(=O)O)NC(=O)[C@H](CS)NC(=O)[C@H](CO)NC(=O)[C@H](CC(N)=O)NC(=O)[C@H](CO)NC(=O)[C@H](CO)NC(=O)[C@H](CC(=O)O)NC(=O)[C@H](CCCNC(=N)N)NC(=O)[C@H](CCCCN)NC(=O)[C@@H]2CCC(=O)N2)C(=O)N[C@@H](CCCCN)C(N)=O)c(C)c1 [SEQ ID NO: 6-NH2, Pyr-Lys-Arg-Asp-Ser-Ser-Asn-Ser-Cys-Asp-Leu-Pro-Glu-Msa-Lys-NH2] ([pGlu]KRDSSNSCDLPE[Phe(2,4,6-Me3)]K-NH2)
% Invasiveness RH30 ([1]; 100 nM peptide): 54.67%
% Invasiveness RH30 ([1]; 500 nM peptide): 22.77* %
% Invasiveness RH30 [1, 7]: significant reduction
% Invasiveness BE(2)-C ([2]; 100 nM peptide): 60.08%
% Invasiveness BE(2)-C ([2]; 200 nM peptide): 59.04%
% Invasiveness BE(2)-C ([2]; 500 nM peptide): 31.17* %
% Invasiveness BE(2)-C [2, 7]: significant reductions
% Invasiveness BE(2)-C ([2]; 1000 nM peptide): 23.54* %
% Invasiveness RD ([3]; 100 nM peptide): 39.45%
% Invasiveness RD ([3]; 500 nM peptide): 39.98%
event-free survival vs vehicle group (in words) ([4]; 0.5 mg/kg (lower dose), listed as SEQ ID NO: 6—NH2): did not show a significant effect
event-free survival vs vehicle group (in words) ([4]; 0.5 mg/kg (lower dose), listed as SEQ ID NO:6—NH2): did not show statistically significant difference
Absence of metastases, number of mice [4, 8]: 1
Absence of metastases, percentage of mice [4, 8]: 17%
Presence of metastases (%), percentage of mice [4, 8]: 83%
Presence of metastases, number of mice [4, 8]: 5
body weight, treated vs vehicle-treated mice (in words) ([4]; 0.5 mg/kg): vehicle-treated mice showed a statistically significant lower body weight
reduction in metastases formation ([4]; 0.5 mg/kg): ~15%
number of metastases per mouse vs vehicle (in words) ([4]; 2 mg/kg (higher dose), at necropsy): statistically reduced the formation of metastases per mouse; also recorded: efficacious in the reduction of the number of metastases
Absence of metastases, number of mice [4, 9]: 1
Absence of metastases, percentage of mice [4, 9]: 14%
Presence of metastases (%), percentage of mice [4, 9]: 86%
Presence of metastases, number of mice [4, 9]: 6
event-free survival vs vehicle group (in words) ([4]; 2 mg/kg, Log-rank): did not show statistically significant difference
body weight, treated vs vehicle-treated mice (in words) ([4]; 2 mg/kg): vehicle-treated mice showed a statistically significant lower body weight
reduction in metastases formation ([4]; 2 mg/kg): ~15%
half-life at 0.6 mg/mL [5]: 0.17 h
% Invasiveness CHLA-90 ([6]; 100 nM peptide): 75.90%
% Invasiveness CHLA-90 ([6]; 200 nM peptide): 55.22* %
% Invasiveness CHLA-90 ([6]; 200 nM peptide, listed as SEQ ID NO: 6—NH2): significant reductions
% Invasiveness CHLA-90 ([6]; 500 nM peptide): 44.58* %
% Invasiveness CHLA-90 ([6]; 1000 nM peptide): 49.00* %
